According to paper PMC11748363, “Antimicrobial and Antiproliferative Properties of 2‐Phenyl‐N‐(Pyridin‐2‐yl)acetamides” (Chemical Biology & Drug Design, 2025):
In brackets after ≈: the same amount, converted by molar mass. Read-outs that look alike come from different tables or passages of the source.

What was measured:
[1] = test system: Mycobacterium tuberculosis H37Ra; test: Antimycobacterial microdilution broth MIC (resazurin), Mtb H37Ra; assay type: cell-based; conditions: Mycobacterium tuberculosis, H37RA
[2] = test system: Trichophyton interdigitale CCM 8377, ATCC 9533; test: Antifungal microdilution broth MIC, TI; conditions: Trichophyton interdigitale
[3] = test system: Enterococcus faecalis CCM 4224, ATCC 29212; test: Antibacterial microdilution broth MIC, EF; assay type: cell-based
[4] = test system: Candida parapsilosis CCM 8260, ATCC 22019; test: Antifungal microdilution broth MIC, CP; conditions: Lodderomyces parapsilosis
[5] = test system: Lichtheimia corymbifera CCM 8077; test: Antifungal microdilution broth MIC, LC
[6] = test system: Aspergillus fumigatus ATCC 204305; test: Antifungal microdilution broth MIC, AF
[7] = test system: HepG2 cell line; test: Cytotoxicity CellTiter 96, HepG2; assay type: cell-based, human; conditions: Homo sapiens, HepG2, 24 h, 24 h incubation; ^c compound precipitated in the testing medium; ^d over the limit of tested concentrations
[8] = test system: Klebsiella pneumoniae CCM 4415, ATCC 10031; test: Antibacterial microdilution broth MIC, KP
[9] = test system: Candida krusei CCM 8271, ATCC 6258; test: Antifungal microdilution broth MIC, CK; conditions: Pichia kudriavzevii; for IC90: ATCC6258|CCM8271, 24 h
[10] = test system: Pseudomonas aeruginosa CCM 3955, ATCC 27853; test: Antibacterial microdilution broth MIC, PA; assay type: cell-based
[11] = test system: Mycolicibacterium aurum DSM 43999; test: Antimycobacterial microdilution broth MIC (resazurin), M. aurum; assay type: cell-based
[12] = test system: Escherichia coli CCM 3954, ATCC 25922; test: Antibacterial microdilution broth MIC, EC; assay type: cell-based
[13] = test system: Candida albicans CCM 8320, ATCC 24433; test: Antifungal microdilution broth MIC, CA; conditions: for IC90: ATCC24433|CCM8320, 24 h
[14] = test system: Aspergillus flavus CCM 8363; test: Antifungal microdilution broth MIC, AFla
[15] = test system: Staphylococcus aureus subsp. aureus CCM 4750, ATCC 43300 (MRSA); test: Antibacterial microdilution broth MIC, MRSA; assay type: cell-based; conditions: Staphylococcus aureus
[16] = test system: Staphylococcus aureus CCM 4223, ATCC 29213; test: Antibacterial microdilution broth MIC, SA; assay type: cell-based; conditions: Staphylococcus aureus
[17] = test system: Mycolicibacterium smegmatis DSM 43465; test: Antimycobacterial microdilution broth MIC (resazurin), M. smegmatis; assay type: cell-based
[18] = test system: Staphylococcus epidermidis CCM 4418, ATCC 12228; test: Antibacterial microdilution broth MIC, SE; assay type: cell-based
[19] = test system: Acinetobacter baumannii DSM 30007, ATCC 19606; test: Antibacterial microdilution broth MIC, ACI; assay type: cell-based
[20] = test system: Candida tropicalis CCM 8264, ATCC 750; test: Antifungal microdilution broth MIC, CT; conditions: for IC90: ATCC750|CCM8264, 24 h
[21] = read-out: MIC Mtb H37Ra (μg/mL)
[22] = ATCC9533|CCM8377, 48 h, read-out: MIC visual detection, TI
[23] = ATCC22019|CCM8260, 24 h, read-out: MIC visual detection, CP
[24] = CCM8077, 48 h, read-out: MIC visual detection, LC
[25] = ATCC204305, 48 h, read-out: MIC visual detection, AF
[26] = 24 h, read-out: MIC visual detection, CK
[27] = 24 h, read-out: MIC visual detection, CA
[28] = CCM8363, 48 h, read-out: MIC visual detection, AFla
[29] = 24 h, read-out: MIC visual detection, CT

COc1cccc(CC(=O)Nc2ccccn2)c1 [Compound 7, 2-(3-methoxyphenyl)-N-(pyridin-2-yl)acetamide]
MIC ([1]; Calculated from MIC (μg/mL), read-out: MIC Mtb H37Ra): 516 µM
MIC ([1]; read-out: MIC Mtb H37Ra): 125 µg/mL
MIC ([2]; 72 h, read-out: MIC TI 72h): > 125 µM
MIC ([2]; 120 h, read-out: MIC TI 120h): > 125 µM
MIC ([3]; 24 h, read-out: MIC EF 24h): > 125 µM
MIC ([3]; 48 h, read-out: MIC EF 48h): > 125 µM
MIC ([4]; 24 h, read-out: MIC CP 24h): > 125 µM
MIC ([4]; 48 h, read-out: MIC CP 48h): > 125 µM
MIC ([5]; CCM8077, 24 h, read-out: MIC LC 24h): > 125 µM
MIC ([5]; CCM8077, 48 h, read-out: MIC LC 48h): > 125 µM
MIC ([6]; ATCC204305, 24 h, read-out: MIC AF 24h): > 125 µM
MIC ([6]; ATCC204305, 48 h, read-out: MIC AF 48h): > 125 µM
IC50 [7]: > 500 µM
MIC KP 24h ([8]; 24h): > 125 µM
MIC KP 48h ([8]; 48h): > 125 µM
MIC ([9]; 24 h, read-out: MIC CK 24h): > 125 µM
MIC ([9]; 48 h, read-out: MIC CK 48h): > 125 µM
MIC ([10]; 24 h, read-out: MIC PA 24h): > 125 µM
MIC ([10]; 48 h, read-out: MIC PA 48h): > 125 µM
MIC ([11]; DSM43999, read-out: MIC M. aurum): 250 µg/mL (≈ 1030 µM)
MIC ([12]; 24 h, read-out: MIC EC 24h): > 125 µM
MIC ([12]; 48 h, read-out: MIC EC 48h): > 125 µM
MIC ([13]; 24 h, read-out: MIC CA 24h): > 125 µM
MIC ([13]; 48 h, read-out: MIC CA 48h): > 125 µM
MIC ([14]; CCM8363, 24 h, read-out: MIC AFla 24h): > 125 µM
MIC ([14]; CCM8363, 48 h, read-out: MIC AFla 48h): > 125 µM
MIC ([15]; 24 h, read-out: MIC MRSA 24h): > 125 µM
MIC ([15]; 48 h, read-out: MIC MRSA 48h): > 125 µM
MIC ([16]; 24 h, read-out: MIC SA 24h): 125 µM
MIC ([16]; 48 h, read-out: MIC SA 48h): 125 µM
MIC ([17]; DSM43465, read-out: MIC M. smegmatis): 250 µg/mL (≈ 1030 µM)
MIC ([18]; 24 h, read-out: MIC SE 24h): > 125 µM
MIC ([18]; 48 h, read-out: MIC SE 48h): > 125 µM
MIC ([19]; 24 h, read-out: MIC ACI 24h): > 125 µM
MIC ([19]; 48 h, read-out: MIC ACI 48h): > 125 µM
MIC ([20]; 24 h, read-out: MIC CT 24h): > 125 µM
MIC ([20]; 48 h, read-out: MIC CT 48h): > 125 µM

O=C(O)c1cn(C2CC2)c2cc(N3CCNCC3)c(F)cc2c1=O [CIP, ciprofloxacin, reference compound]
MIC ([1]; read-out: MIC Mtb H37Ra (μM)): 0.38 to 0.75 µM
MIC [1, 21]: 0.125 to 0.25 µg/mL

CO[C@H]1/C=C/O[C@@]2(C)Oc3c(C)c(O)c4c(O)c(c(/C=N/N5CCN(C)CC5)c(O)c4c3C2=O)NC(=O)/C(C)=C\C=C\[C@H](C)[C@H](O)[C@@H](C)[C@@H](O)[C@@H](C)[C@H](OC(C)=O)[C@@H]1C [RIF, rifampicin, reference compound]
MIC ([1]; read-out: MIC Mtb H37Ra (μM)): 0.0037 µM
MIC [1, 21]: 0.00313 µg/mL
MIC ([11]; DSM43999, read-out: MIC M. aurum (μg/mL)): 0.39 to 0.78 µg/mL (≈ 0.474 to 0.948 µM)
MIC ([17]; DSM43465, read-out: MIC M. smegmatis (μg/mL)): 1.56 to 6.25 µg/mL (≈ 1.9 to 7.59 µM)

CNC(C)C1CCC(N)C(OC2C(N)CC(N)C(OC3OCC(C)(O)C(NC)C3O)C2O)O1 (centres unmarked) [Gentamicin, gentamicin, reference compound]
MIC ([3]; internal quality controls, 24h, 95% inhibition of growth, 530 nm, read-out: MIC (µg/mL) EF, spectrophotometric detection): > 8 µg/mL
MIC ([3]; read-out: MIC (µg/mL) EF, Gentamicin – spectrophotometric detection, internal quality controls, 24h): > 8 µg/mL
MIC ([10]; internal quality controls, 24h, 95% inhibition of growth, 530 nm, read-out: MIC (µg/mL) PA, spectrophotometric detection): 0.5 µg/mL
MIC ([10]; read-out: MIC (µg/mL) PA, Gentamicin – spectrophotometric detection, internal quality controls, 24h): 0.5 µg/mL
MIC ([12]; internal quality controls, 24h, 95% inhibition of growth, 530 nm, read-out: MIC (µg/mL) EC, spectrophotometric detection): 1 µg/mL
MIC ([12]; read-out: MIC (µg/mL) EC, Gentamicin – spectrophotometric detection, internal quality controls, 24h): 1 µg/mL
MIC ([15]; read-out: MIC (µg/mL) MRSA, Gentamicin – spectrophotometric detection, internal quality controls, 24h): > 8 µg/mL
MIC ([15]; internal quality controls, 24h, 95% inhibition of growth, 530 nm, read-out: MIC (µg/mL) MRSA, spectrophotometric detection): > 8 µg/mL
MIC ([16]; read-out: MIC (µg/mL) SA, Gentamicin – spectrophotometric detection, internal quality controls, 24h): 0.5 µg/mL
MIC ([16]; internal quality controls, 24h, 95% inhibition of growth, 530 nm, read-out: MIC (µg/mL) SA, spectrophotometric detection): 1 µg/mL
MIC ([18]; internal quality controls, 24h, 95% inhibition of growth, 530 nm, read-out: MIC (µg/mL) SE, spectrophotometric detection): 0.0625 µg/mL
MIC ([18]; read-out: MIC (µg/mL) SE, Gentamicin – spectrophotometric detection, internal quality controls, 24h): 0.0625 µg/mL
MIC ([19]; internal quality controls, 24h, 95% inhibition of growth, 530 nm, read-out: MIC (µg/mL) ACI, spectrophotometric detection): 8 µg/mL
MIC ([19]; read-out: MIC (µg/mL) ACI, Gentamicin – spectrophotometric detection, internal quality controls, 24h): 8 µg/mL

C[C@@H]1[C@H](O)[C@@H](C)/C=C/C=C/C=C/C=C/C=C/C=C/C=C/[C@H](O[C@@H]2O[C@H](C)[C@@H](O)[C@H](N)[C@@H]2O)C[C@@H]2O[C@](O)(C[C@@H](O)C[C@@H](O)[C@H](O)CC[C@@H](O)C[C@@H](O)CC(=O)O[C@H]1C)C[C@H](O)[C@H]2C(=O)O [Amphotericin B, amphotericin B, reference compound]
IC90 ([2]; ATCC9533|CCM8377, 48 h, read-out: Amphotericin B - IC90 spectrophotometric detection, TI): 1 µg/mL (≈ 1.08 µM)
MIC [2, 22]: 1 µg/mL
IC90 ([4]; ATCC22019|CCM8260, 24 h, read-out: Amphotericin B - IC90 spectrophotometric detection, CP): 0.5 µg/mL (≈ 0.541 µM)
MIC [4, 23]: 0.5 µg/mL
IC90 ([5]; CCM8077, 48 h, read-out: Amphotericin B - IC90 spectrophotometric detection, LC): 1 µg/mL (≈ 1.08 µM)
MIC [5, 24]: 1 µg/mL
IC90 ([6]; ATCC204305, 48 h, read-out: Amphotericin B - IC90 spectrophotometric detection, AF): 4 µg/mL (≈ 4.33 µM)
MIC [6, 25]: 4 µg/mL
MIC [9, 26]: 1 µg/mL
IC90 ([9]; read-out: Amphotericin B - IC90 spectrophotometric detection, CK): 1 µg/mL (≈ 1.08 µM)
MIC [13, 27]: 1 µg/mL
IC90 ([13]; read-out: Amphotericin B - IC90 spectrophotometric detection, CA): 1 µg/mL (≈ 1.08 µM)
IC90 ([14]; CCM8363, 48 h, read-out: Amphotericin B - IC90 spectrophotometric detection, AFla): 4 µg/mL (≈ 4.33 µM)
MIC [14, 28]: 4 µg/mL
MIC [20, 29]: 1 µg/mL
IC90 ([20]; read-out: Amphotericin B - IC90 spectrophotometric detection, CT): 1 µg/mL (≈ 1.08 µM)

C[C@@H](c1ncncc1F)[C@](O)(Cn1cncn1)c1ccc(F)cc1F [Voriconazole, voriconazole, reference compound]
MIC [2, 22]: > 16 µg/mL
IC90 ([2]; ATCC9533|CCM8377, 48 h, read-out: Voriconazole - IC90 spectrophotometric detection, TI): 1 µg/mL (≈ 2.86 µM)
MIC [4, 23]: > 16 µg/mL
IC90 ([4]; ATCC22019|CCM8260, 24 h, read-out: Voriconazole - IC90 spectrophotometric detection, CP): 0.03 µg/mL (≈ 0.0859 µM)
MIC [5, 24]: > 16 µg/mL
IC90 ([5]; CCM8077, 48 h, read-out: Voriconazole - IC90 spectrophotometric detection, LC): > 16 µg/mL
MIC [6, 25]: 1 µg/mL
IC90 ([6]; ATCC204305, 48 h, read-out: Voriconazole - IC90 spectrophotometric detection, AF): 0.25 µg/mL (≈ 0.716 µM)
MIC [9, 26]: > 16 µg/mL
IC90 ([9]; read-out: Voriconazole - IC90 spectrophotometric detection, CK): 0.25 µg/mL (≈ 0.716 µM)
MIC [13, 27]: > 16 µg/mL
IC90 ([13]; read-out: Voriconazole - IC90 spectrophotometric detection, CA): 0.03 µg/mL (≈ 0.0859 µM)
MIC [14, 28]: > 16 µg/mL
IC90 ([14]; CCM8363, 48 h, read-out: Voriconazole - IC90 spectrophotometric detection, AFla): 2 µg/mL (≈ 5.73 µM)
MIC [20, 29]: > 16 µg/mL
IC90 ([20]; read-out: Voriconazole - IC90 spectrophotometric detection, CT): 2 µg/mL (≈ 5.73 µM)
